The values that follow come from patent US9951058B2, “Compound, pharmaceutically acceptable salt or optical isomer thereof, method for preparing the same, and pharmaceutical composition for prevention or treatment of viral diseases containing same as active ingredient” (Korea Research Institute of Chemical Technology, priority 2012, dated 2018).

The conditions of data set [1]: in vivo; cited from earlier work.
For data set [2] the following is noted: cited from earlier work.
Data set [3] can be described thus: Cytotoxicity (CC50) in multicycle CPE reduction assay, MTS. The note with it: human.
The next data set concerns HRV 14. The data set is described as follows: Cytopathic effect (CPE) inhibition assay. The note with it: Human rhinovirus sp., HeLa, 72 h, host cell HeLa, 3 days, MEM/2% FBS, MTT assay; read-out: EC50 HRV 14. It counts as cell-based, human rhinovirus. (Protection from cytopathic effect is a common read-out in antiviral testing.)
The next data set can be described thus: in vitro. The note with it: human.
For the next data set, the system named is HRV 21. The data set is described as follows: Cytopathic effect (CPE) inhibition assay. It counts as cell-based, human rhinovirus. The note with it: Human rhinovirus sp., 72 h; host cell HeLa, 3 days, MEM/2% FBS, MTT assay; read-out: EC50 HRV 21.
Another data set relates to HRV 71. The data set is described as follows: Cytopathic effect (CPE) inhibition assay. The settings on record: Human rhinovirus sp., 72 h; host cell HeLa, 3 days, MEM/2% FBS, MTT assay; read-out: EC50 HRV 71. It counts as cell-based, human rhinovirus.
Data set [4] has as its system coxsackievirus B3 (Cox B3). The data set is described as follows: Multicycle cytopathic effect (CPE) reduction assay. It counts as cell-based. The settings on record: Enterovirus B, B3, 72 h, read-out: EC50 CoxB3.
Data set [5] has as its system coxsackievirus B1 (Cox B1). The data set is described as follows: Multicycle cytopathic effect (CPE) reduction assay. It is filed as cell-based. The settings on record: Enterovirus B, B1, 72 h, read-out: EC50 CoxB1.
The test system of the next data set is poliovirus 3 (PV3). In words: microbe, parasite or virus in culture. It is filed as cell-based. The note with it: Enterovirus C, 72 h, read-out: EC50 PV3.

Converted amounts (≈) assume the structure as drawn. Where only a bound is given, the exact number is not on record here.

Regarding `Cc1cc(CCCCCOc2c(Cl)cc(C3=NCCO3)cc2Cl)on1` [WIN 54954], the metabolization and excretion entry in [1] is “rapid metabolization and excretion”. Further, in data set [2] (in vivo), the side effects entry is “skin rash”.
Take `CCC(C)C(=O)C(=O)NC12C(=O)c3cccc([N+](=O)[O-])c3C1(O)Oc1cc(C(C)C)ccc12` (stereo not drawn) [Example 28, N-(4b-hydroxy-7-isopropyl-4-nitro-10-oxo-4b, 10-dihydro-9bH-indeno[1,2-b]benzofuran-9b-yl)-3 methyl-2-oxo pentanamide]: in data set [3], the CC50 at 3 days is over 10 mg/L. Further, the EC50 in the data set with HRV 14 was under 10 mg/L; in the data set with HRV 21 it was over 10 mg/L; in the data set on HRV 71, over 10 mg/L; in [4], under 10 mg/L; in data set [5], under 1 mg/L; in the data set on poliovirus 3 (PV3), over 10 mg/L. For the same molecule, in the data set “in vitro”, the CC50 was over 10 mg/L.
Molecule `COc1cc(C(=O)C(=O)NC23C(=O)c4ccccc4C2(O)Oc2cc(C(C)C)ccc23)cc(OC)c1OC` (stereo not drawn) [Example 23, N-(4b-hydroxy-7-isopropyl-10-oxo-4b, 10-dihydro-9bH-indeno[1,2-b]benzofuran-9b-yl)-2-oxo-2-(3,4,5-trimethoxyphenyl)acetamide] returned a CC50 at 3 days in data set [3] of over 10 mg/L. Besides, the concentration for a half-maximal effect (EC50) in the data set on HRV 14 was under 10 mg/L; in the data set with HRV 21, over 10 mg/L; in the data set with HRV 71 it was over 10 mg/L; in data set [4], under 0.1 mg/L; in [5], under 0.1 mg/L; in the data set with poliovirus 3 (PV3), under 10 mg/L. This molecule also displayed a CC50 in “in vitro” of over 10 mg/L.
In the case of `CC(C)c1ccc2c(c1)OC1(O)c3ccccc3C(=O)C21NC(=O)C(=O)Cc1ccccc1[N+](=O)[O-]` (stereo not drawn) [Example 3, N-(4b-hydroxy-7-isopropyl-10-oxo-9b, 10-dihydro-4bH-indeno[1,2-b]benzofuran-9b-yl)-3-(2-nitrophenyl)-2-oxo propanamide], the CC50 at 3 days in data set [3] amounted to 2.38 mg/L (≈ 4.89 µM). For the same molecule, the EC50 is over 1.76 mg/L in the data set on HRV 14; over 1.76 mg/L with HRV 21; over 1.76 mg/L in the data set with HRV 71; 0.015 mg/L (≈ 0.0308 µM) in data set [4]; 0.013 mg/L (≈ 0.0267 µM) in data set [5]; under 1 mg/L in the data set with poliovirus 3 (PV3). In addition, the CC50 in “in vitro” amounted to 1.76 mg/L (≈ 3.62 µM).
`CC(C)c1ccc2c(c1)OC1(O)c3c(cccc3[N+](=O)[O-])C(=O)C21NC(=O)C(=O)CCc1ccccc1` (stereo not drawn) [Example 53, N-(4b-hydroxy-7-isopropyl-4-nitro-10-oxo-4b, 10-dihydro-9bH-indeno[1,2-b]benzofuran-9b-yl)-2-oxo-4-phenyl butanamide] had a CC50 at 3 days in [3] of over 10 mg/L. Moreover, the EC50 in the data set with HRV 14 was over 4.8 mg/L; with HRV 21, over 4.8 mg/L; in the data set on HRV 71, over 4.8 mg/L; in [4], under 10 mg/L; in data set [5] it was under 10 mg/L; in the data set with poliovirus 3 (PV3), over 10 mg/L. This molecule came in with a CC50 in “in vitro” of 4.8 mg/L (≈ 9.59 µM).
Consider `CC(C)c1ccc2c(c1)OC1(O)c3ccccc3C(=O)C21NC(=O)C(=O)c1c[nH]c2ccccc12` (stereo not drawn) [Example 1, N-(4b-hydroxy-7-isopropyl-10-oxo-9b, 10-dihydro-4bH-benzo[d]indeno[1,2-b]furan-9b-yl)-2-(1H-indol-3-yl)-2-oxo acetamide], for which the CC50 at 3 days in data set [3] stood at 8.57 mg/L (≈ 18.4 µM). For the same molecule, the concentration for a half-maximal effect (EC50) in the data set with HRV 14 was under 1 mg/L; in the data set with HRV 21, over 7.91 mg/L; in the data set with HRV 71, over 7.91 mg/L; in data set [4], 0.061 mg/L (≈ 0.131 µM); in data set [5] it was 0.017 mg/L (≈ 0.0364 µM); in the data set with poliovirus 3 (PV3), 1.1 mg/L (≈ 2.36 µM). Moreover, the CC50 in “in vitro” came out at 7.91 mg/L (≈ 17 µM).
In the case of `CCC(C)C(=O)C(=O)NC12C(=O)c3c(N)cccc3C1(O)Oc1cc(C(C)C)ccc12` (stereo not drawn) [Example 40, N-(1-amino-4b-hydroxy-7-isopropyl-10-oxo-4b, 10-dihydro-9bH-indeno[1,2-b]benzofuran-9b-yl)-3-methyl-2-oxo pentanamide], the CC50 at 3 days in [3] is over 10 mg/L. Further, the 50% effective concentration (EC50) in the data set on HRV 14 was under 0.1 mg/L; in the data set on HRV 21, over 10 mg/L; in the data set on HRV 71, over 10 mg/L; in [4], under 0.01 mg/L; in data set [5] it was under 0.01 mg/L; in the data set with poliovirus 3 (PV3), under 0.1 mg/L. In the data set “in vitro”, this molecule gave a CC50 of over 10 mg/L.
Molecule `CC(C)CC(=O)C(=O)NC12C(=O)c3cccc([N+](=O)[O-])c3C1(O)Oc1cc(C(C)C)ccc12` (stereo not drawn) [Example 38, N-(4b hydroxyl-7-isopropyl-4-nitro-10-oxo-4b, 10-dihydro-9bH-indeno[1,2-b]benzofuran-9b-yl)-4-methyl-2-oxo pentanamide] displayed a CC50 at 3 days in [3] of over 10 mg/L. Also, the half-maximal effective concentration (EC50) was under 10 mg/L in the data set with HRV 14; over 10 mg/L with HRV 21; over 10 mg/L with HRV 71; under 1 mg/L in [4]; under 1 mg/L in data set [5]; under 10 mg/L with poliovirus 3 (PV3). The molecule also registered a CC50 in “in vitro” of over 10 mg/L.
`CC(C)c1ccc2c(c1)OC1(O)c3ccccc3C(=O)C21NC(=O)C(=O)c1ccccc1` (stereo not drawn) [Example 15, N-(4b-hydroxy-7-isopropyl-10-oxo-9b, 10-dihydro-4bH-indeno[1,2-b]benzofuran-9b-yl)-2-oxo-2-phenyl acetamide] showed a CC50 at 3 days in [3] of 8.8 mg/L (≈ 20.6 µM). Moreover, the half-maximal effective concentration (EC50) was under 1 mg/L in the data set on HRV 14; over 8.72 mg/L with HRV 21; over 8.72 mg/L in the data set on HRV 71; under 0.01 mg/L in data set [4]; under 0.01 mg/L in data set [5]; under 1 mg/L in the data set on poliovirus 3 (PV3). Besides, the CC50 in the data set “in vitro” came to 8.72 mg/L (≈ 20.4 µM).
For `CC(C)S(=O)(=O)n1c(N)nc2ccc(/C(=N/O)c3ccccc3)cc21` [Enviroxime], the therapeutic effect result in [2] (clinical) is recorded as “few or no therapeutic effects”. Moreover, in data set [2] (in vivo), the pharmacokinetics entry is reported as “insufficient pharmacokinetics” and the side effects result was “unwanted side effects”.
Molecule `CC(C)c1ccc2c(c1)OC1(O)c3c(cccc3[N+](=O)[O-])C(=O)C21NC(=O)C(=O)c1ccccc1` (stereo not drawn) [Example 16, N-(4b-hydroxy-7-isopropyl-4-nitro-10-oxo-9b, 10-dihydro-4bH-indeno[1,2-b]benzofuran-9b-yl)-2-oxo-2-phenyl acetamide] displayed a CC50 at 3 days in data set [3] of over 10 mg/L. Further, the EC50 in the data set with HRV 14 is 1.77 mg/L (≈ 3.75 µM); with HRV 21, over 10 mg/L; in the data set with HRV 71, over 10 mg/L; in [4], 0.33 mg/L (≈ 0.698 µM); in data set [5], 0.078 mg/L (≈ 0.165 µM); in the data set with poliovirus 3 (PV3) it was 2.13 mg/L (≈ 4.51 µM). For the same molecule, the CC50 in the data set “in vitro” is over 10 mg/L.
`Cc1cccc(C)c1NC(=O)C(=O)NC12C(=O)c3ccccc3C1(O)Oc1cc(C(C)C)ccc12` (stereo not drawn) [Example 20, N1-(2,6-dimethylphenyl)-N2-(4b-hydroxy-7-isopropyl-10-oxo-4b, 10-dihydro-9bH-indeno[1,2-b]benzofuran-9b-yl)oxal amide] had a CC50 at 3 days in [3] of over 10 mg/L. Further, the 50% effective concentration (EC50) was under 10 mg/L in the data set on HRV 14; over 10 mg/L in the data set with HRV 21; over 10 mg/L in the data set with HRV 71; under 0.1 mg/L in data set [4]; under 0.1 mg/L in data set [5]; under 10 mg/L with poliovirus 3 (PV3). This molecule registered a CC50 in the data set “in vitro” of over 10 mg/L.
On to `CCCC(=O)C(=O)NC12C(=O)c3c(N)cccc3C1(O)Oc1cc(C(C)C)ccc12` (stereo not drawn) [Example 52, N-(1-amino-4b-hydroxy-7-isopropyl-10-oxo-4b, 10-dihydro-9bH-indeno[1,2-b]benzofuran-9b-yl)-2-oxo pentanamide], for which the CC50 at 3 days in data set [3] was over 10 mg/L. Moreover, the concentration giving a half-maximal response (EC50) in the data set on HRV 14 is under 0.01 mg/L; in the data set on HRV 21, over 10 mg/L; in the data set on HRV 71, over 10 mg/L; in data set [4] it was under 0.01 mg/L; in [5], under 0.01 mg/L; with poliovirus 3 (PV3), under 0.1 mg/L. In “in vitro”, this molecule returned a CC50 of over 10 mg/L.
The molecule `COc1cc(C(=O)C(=O)NC23C(=O)c4cccc([N+](=O)[O-])c4C2(O)Oc2cc(C(C)C)ccc23)cc(OC)c1OC` (stereo not drawn) [Example 58, N-(4b-hydroxy-7-isopropyl-4-nitro-10-oxo-4b, 10-dihydro-9bH-indeno[1,2-b]benzofuran-9b-yl) 2-oxo-2-(3,4,5-trimethoxyphenyl)acetamide] had a CC50 at 3 days in data set [3] of over 10 mg/L. Further, the concentration giving a half-maximal response (EC50) with HRV 14 was under 10 mg/L; in the data set with HRV 21 it was over 10 mg/L; with HRV 71, over 10 mg/L; in [4], under 10 mg/L; in data set [5] it was under 10 mg/L; in the data set with poliovirus 3 (PV3), over 10 mg/L. The CC50 in the data set “in vitro” was over 10 mg/L.
The molecule `CC(C)c1ccc2c(c1)OC1(O)c3ccccc3C(=O)C21NC(=O)CNC(=O)OC(C)(C)C` (stereo not drawn) [Example 63, tert-butyl (2-((4b-hydroxy-7-isopropyl-10-oxo-4b, 10-dihydro-9bH-indeno[1,2-b]benzofuran-9b-yl)amino)-2-oxoethyl)carbamate] gave a CC50 at 3 days in data set [3] of over 10 mg/L. Further, the EC50 with HRV 14 is under 1 mg/L; in the data set on HRV 21 it was over 10 mg/L; in the data set on HRV 71 it was over 10 mg/L; in [4], under 0.1 mg/L; in data set [5] it was under 0.1 mg/L; in the data set with poliovirus 3 (PV3) it was under 10 mg/L. In “in vitro”, this molecule registered a CC50 of over 10 mg/L.
In [3], `CC(C)c1ccc2c(c1)OC1(O)c3cccc(N)c3C(=O)C21NC(=O)C(=O)c1c[nH]c2ccccc12` (stereo not drawn) [Example 10, N-(1-amino-4b-hydroxy-7-isopropyl-10-oxo-9b, 10-dihydro-4bH-indeno[1,2-b]benzofuran-9b-yl)-2-(1H-indo1-3-yl)-2-oxo acetamide] had a CC50 at 3 days of 8.33 mg/L (≈ 17.3 µM). For the same molecule, the EC50 in the data set with HRV 14 is under 0.1 mg/L; in the data set on HRV 21 it was over 4.89 mg/L; in the data set on HRV 71, over 4.89 mg/L; in data set [4], 0.014 mg/L (≈ 0.0291 µM); in data set [5], under 0.01 mg/L; with poliovirus 3 (PV3), under 0.1 mg/L. Further, in the data set “in vitro”, the CC50 was 4.89 mg/L (≈ 10.2 µM).

Usually EC50 stands for the midpoint of the concentration-response curve.
